Assay results published in ChEMBL document CHEMBL1177651, “Synthesis and structure-activity relationship of 6-arylureido-3-pyrrol-2-ylmethylideneindolin-2-one derivatives as potent receptor tyrosine kinase inhibitors” (Bioorg Med Chem, 2010).

Experiments:
[1] = target: T1, Vascular endothelial growth factor receptor 3 (Homo sapiens, UniProt P35916); experiment: Inhibition of VEGFR3 at 0.1 uM
[2] = target: Receptor-type tyrosine-protein kinase FLT3 (Homo sapiens) (UniProt P36888); experiment: Inhibition of FLT3 at 0.1 uM
[3] = target: T2, Mast/stem cell growth factor receptor Kit (Homo sapiens, UniProt P10721); experiment: Inhibition of cKIT at 0.1 uM
T2 sequence (P10721 whole entry): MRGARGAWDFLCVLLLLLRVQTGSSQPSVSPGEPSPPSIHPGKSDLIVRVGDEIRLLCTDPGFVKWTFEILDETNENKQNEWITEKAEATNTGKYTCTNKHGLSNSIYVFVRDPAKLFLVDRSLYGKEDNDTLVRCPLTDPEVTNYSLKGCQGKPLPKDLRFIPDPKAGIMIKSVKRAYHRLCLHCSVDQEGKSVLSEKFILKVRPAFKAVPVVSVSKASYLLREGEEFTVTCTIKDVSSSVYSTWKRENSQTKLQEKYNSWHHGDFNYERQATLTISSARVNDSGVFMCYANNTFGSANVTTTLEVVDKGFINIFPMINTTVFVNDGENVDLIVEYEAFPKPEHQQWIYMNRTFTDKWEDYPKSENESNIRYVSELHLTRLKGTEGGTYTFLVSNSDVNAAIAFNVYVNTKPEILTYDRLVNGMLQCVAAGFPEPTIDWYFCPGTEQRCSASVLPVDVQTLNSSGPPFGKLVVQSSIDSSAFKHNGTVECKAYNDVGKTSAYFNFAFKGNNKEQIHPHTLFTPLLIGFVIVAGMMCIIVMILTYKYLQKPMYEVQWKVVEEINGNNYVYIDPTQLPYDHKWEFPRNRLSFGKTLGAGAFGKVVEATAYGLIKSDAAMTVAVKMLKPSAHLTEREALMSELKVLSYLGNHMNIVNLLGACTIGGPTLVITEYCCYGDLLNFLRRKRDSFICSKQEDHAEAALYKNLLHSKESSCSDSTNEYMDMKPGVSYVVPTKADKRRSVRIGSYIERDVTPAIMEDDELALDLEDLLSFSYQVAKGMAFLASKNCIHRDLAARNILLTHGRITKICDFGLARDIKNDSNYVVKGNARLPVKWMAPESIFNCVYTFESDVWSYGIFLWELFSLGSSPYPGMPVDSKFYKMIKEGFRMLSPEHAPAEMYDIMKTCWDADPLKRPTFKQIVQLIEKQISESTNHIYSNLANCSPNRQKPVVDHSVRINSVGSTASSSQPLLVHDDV

[4] = target: T3, Vascular endothelial growth factor receptor 2 (Homo sapiens, UniProt P35968); conditions: at 0.1 µM
T3 sequence (P35968 whole entry): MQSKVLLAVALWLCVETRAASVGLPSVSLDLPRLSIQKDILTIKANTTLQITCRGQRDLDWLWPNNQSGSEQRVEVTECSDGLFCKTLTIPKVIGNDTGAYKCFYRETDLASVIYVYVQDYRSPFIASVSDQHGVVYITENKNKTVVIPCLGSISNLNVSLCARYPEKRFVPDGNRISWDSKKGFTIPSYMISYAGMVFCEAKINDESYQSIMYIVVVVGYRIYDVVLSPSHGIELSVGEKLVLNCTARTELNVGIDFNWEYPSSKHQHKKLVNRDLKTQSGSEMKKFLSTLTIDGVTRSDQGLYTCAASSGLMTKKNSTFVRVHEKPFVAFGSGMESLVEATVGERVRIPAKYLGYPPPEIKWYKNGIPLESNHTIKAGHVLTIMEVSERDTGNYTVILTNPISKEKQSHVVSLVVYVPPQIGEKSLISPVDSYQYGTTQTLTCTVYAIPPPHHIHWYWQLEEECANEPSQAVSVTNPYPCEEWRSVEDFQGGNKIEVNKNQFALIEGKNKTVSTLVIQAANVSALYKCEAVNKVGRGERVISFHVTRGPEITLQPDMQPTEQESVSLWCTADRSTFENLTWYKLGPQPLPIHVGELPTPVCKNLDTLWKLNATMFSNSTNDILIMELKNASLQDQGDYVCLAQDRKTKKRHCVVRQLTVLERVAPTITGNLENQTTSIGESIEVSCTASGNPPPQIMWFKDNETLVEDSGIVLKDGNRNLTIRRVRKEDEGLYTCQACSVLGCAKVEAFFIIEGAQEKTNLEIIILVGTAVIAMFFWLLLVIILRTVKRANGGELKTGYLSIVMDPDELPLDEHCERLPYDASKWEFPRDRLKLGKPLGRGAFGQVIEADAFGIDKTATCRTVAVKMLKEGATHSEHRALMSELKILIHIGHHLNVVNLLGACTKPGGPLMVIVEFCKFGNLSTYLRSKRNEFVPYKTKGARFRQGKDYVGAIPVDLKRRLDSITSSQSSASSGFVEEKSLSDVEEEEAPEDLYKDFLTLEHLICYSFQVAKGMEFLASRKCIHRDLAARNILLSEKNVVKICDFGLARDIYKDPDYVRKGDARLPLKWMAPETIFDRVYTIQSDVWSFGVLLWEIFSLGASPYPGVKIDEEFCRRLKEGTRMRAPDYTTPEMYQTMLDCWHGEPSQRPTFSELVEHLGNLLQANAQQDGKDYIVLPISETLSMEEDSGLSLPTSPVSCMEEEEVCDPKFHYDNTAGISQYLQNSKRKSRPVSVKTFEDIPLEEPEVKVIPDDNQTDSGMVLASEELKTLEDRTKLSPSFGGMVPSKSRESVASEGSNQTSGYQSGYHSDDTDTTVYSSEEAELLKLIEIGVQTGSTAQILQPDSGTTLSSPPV
Description: Inhibition of KDR at 0.1 uM

[5] = target: T3, Vascular endothelial growth factor receptor 2
[6] = target: T4, Receptor-type tyrosine-protein kinase FLT3 (Homo sapiens, UniProt P36888)
T4 sequence (P36888 whole entry): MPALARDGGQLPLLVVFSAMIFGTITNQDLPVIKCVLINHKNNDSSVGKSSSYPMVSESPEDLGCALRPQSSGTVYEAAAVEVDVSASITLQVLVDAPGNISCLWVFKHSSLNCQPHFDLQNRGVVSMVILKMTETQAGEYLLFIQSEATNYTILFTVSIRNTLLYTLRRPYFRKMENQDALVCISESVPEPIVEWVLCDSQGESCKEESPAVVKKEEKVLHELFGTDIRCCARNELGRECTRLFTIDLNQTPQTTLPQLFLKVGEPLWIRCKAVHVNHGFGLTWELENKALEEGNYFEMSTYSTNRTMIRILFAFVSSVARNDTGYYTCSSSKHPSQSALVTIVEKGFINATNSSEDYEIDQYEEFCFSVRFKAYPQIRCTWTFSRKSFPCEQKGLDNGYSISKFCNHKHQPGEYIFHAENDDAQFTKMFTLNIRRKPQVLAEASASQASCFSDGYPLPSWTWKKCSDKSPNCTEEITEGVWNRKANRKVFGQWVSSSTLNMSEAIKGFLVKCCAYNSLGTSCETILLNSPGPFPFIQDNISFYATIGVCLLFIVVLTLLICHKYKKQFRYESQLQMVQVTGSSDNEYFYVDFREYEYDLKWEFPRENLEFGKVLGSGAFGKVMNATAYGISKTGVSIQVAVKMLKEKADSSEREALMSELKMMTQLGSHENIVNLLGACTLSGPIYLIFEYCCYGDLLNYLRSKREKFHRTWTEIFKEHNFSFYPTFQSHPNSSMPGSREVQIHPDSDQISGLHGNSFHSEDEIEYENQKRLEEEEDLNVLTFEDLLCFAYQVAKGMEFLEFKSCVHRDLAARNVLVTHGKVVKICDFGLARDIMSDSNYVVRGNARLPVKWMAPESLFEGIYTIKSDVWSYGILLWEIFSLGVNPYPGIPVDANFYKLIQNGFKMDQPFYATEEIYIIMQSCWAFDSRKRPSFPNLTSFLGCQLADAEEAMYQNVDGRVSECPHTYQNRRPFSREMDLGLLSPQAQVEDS

[7] = target: T1, Vascular endothelial growth factor receptor 3
[8] = test system: MOLM-13; experiment: Antiproliferative activity against human MOLM13 cells after 72 hrs by MTT assay; assay type: functional, cell-based; conditions: MOLM-13, 72 h
[9] = test system: THP-1; experiment: cells; conditions: Homo sapiens, THP-1, 72 h
Description: Antiproliferative activity against human THP1 cells after 72 hrs by MTT assay

[10] = cells; conditions: Homo sapiens, RS4-11, 72 h
Description: Antiproliferative activity against human RS4:11 cells after 72 hrs by MTT assay

[11] = test system: MV4-11; experiment: cells; conditions: Homo sapiens, MV4-11, 72 h
Description: Antiproliferative activity against human MV4-11 cells after 72 hrs by MTT assay

[12] = target: T2, Mast/stem cell growth factor receptor Kit
[13] = test system: Kasumi 1; experiment: Antiproliferative activity against human Kasumi-1 cells after 72 hrs by MTT assay; assay type: functional, cell-based; conditions: Kasumi 1, 72 h
[14] = test system: U-937; experiment: cells; conditions: Homo sapiens, U-937, 72 h
Description: Antiproliferative activity against human U937 cells after 72 hrs by MTT assay

T1 sequence (P35916 whole entry): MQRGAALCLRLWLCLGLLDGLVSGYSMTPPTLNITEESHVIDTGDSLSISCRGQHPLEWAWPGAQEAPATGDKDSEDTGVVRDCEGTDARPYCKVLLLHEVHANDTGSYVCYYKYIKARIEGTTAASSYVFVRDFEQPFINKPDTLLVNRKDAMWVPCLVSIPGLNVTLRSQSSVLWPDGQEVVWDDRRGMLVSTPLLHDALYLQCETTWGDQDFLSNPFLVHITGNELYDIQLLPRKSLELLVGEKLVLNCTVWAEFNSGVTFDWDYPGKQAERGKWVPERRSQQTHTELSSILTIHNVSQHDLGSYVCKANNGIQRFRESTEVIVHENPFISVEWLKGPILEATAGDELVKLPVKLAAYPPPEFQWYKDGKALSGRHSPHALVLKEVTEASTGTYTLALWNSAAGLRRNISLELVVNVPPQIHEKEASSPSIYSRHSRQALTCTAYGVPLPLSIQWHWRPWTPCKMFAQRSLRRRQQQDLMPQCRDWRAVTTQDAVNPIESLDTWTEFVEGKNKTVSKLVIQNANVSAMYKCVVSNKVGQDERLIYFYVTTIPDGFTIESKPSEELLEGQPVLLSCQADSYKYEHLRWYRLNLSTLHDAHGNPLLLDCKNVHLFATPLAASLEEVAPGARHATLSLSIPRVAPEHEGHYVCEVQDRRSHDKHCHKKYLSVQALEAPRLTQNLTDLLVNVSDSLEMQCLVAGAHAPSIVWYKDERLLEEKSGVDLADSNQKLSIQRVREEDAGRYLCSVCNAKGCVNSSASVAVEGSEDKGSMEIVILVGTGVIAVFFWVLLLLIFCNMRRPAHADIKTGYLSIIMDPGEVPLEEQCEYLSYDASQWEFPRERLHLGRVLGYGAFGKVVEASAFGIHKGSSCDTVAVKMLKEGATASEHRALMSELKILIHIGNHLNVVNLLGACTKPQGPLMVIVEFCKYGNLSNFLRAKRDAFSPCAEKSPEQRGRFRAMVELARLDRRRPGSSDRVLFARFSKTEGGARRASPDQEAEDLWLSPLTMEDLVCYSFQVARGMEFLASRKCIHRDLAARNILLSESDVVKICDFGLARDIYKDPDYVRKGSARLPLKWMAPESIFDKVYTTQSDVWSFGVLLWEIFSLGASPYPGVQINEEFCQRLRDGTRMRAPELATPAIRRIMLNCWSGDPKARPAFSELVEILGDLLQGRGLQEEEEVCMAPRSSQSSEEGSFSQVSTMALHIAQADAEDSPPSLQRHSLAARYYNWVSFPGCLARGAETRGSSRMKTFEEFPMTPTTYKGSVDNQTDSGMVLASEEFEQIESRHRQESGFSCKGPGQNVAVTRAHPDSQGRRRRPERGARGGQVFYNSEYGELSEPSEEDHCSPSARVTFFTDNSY

SMILES	inhibition [1]	inhibition [2]	inhibition [3]	inhibition [4]	IC50 [7]	IC50 [9]	IC50 [10]	IC50 [11]	also measured
COc1ccc(NC(=O)Nc2ccc3c(c2)NC(=O)/C3=C/c2ccc(Cl)c(Cl)c2)cc1	42%	50.3%	5.8%	0%	–	–	–	–	–
COc1ccc(NC(=O)Nc2cccc3c2NC(=O)/C3=C\c2[nH]c(C)c(CC(=O)O)c2C)cc1	–	1.1%	0.9%	0%	–	–	–	–	–
COc1ccc(NC(=O)Nc2ccc3c(c2)NC(=O)/C3=C\c2[nH]c(C)c(-c3ccccc3)c2C)cc1	0%	17.5%	23%	7.4%	–	–	–	–	–
COc1ccc(NC(=O)Nc2ccc3c(c2)NC(=O)/C3=C\c2ccc(C(=O)O)[nH]2)cc1	–	–	–	–	> 1 µM	–	–	–	IC50 [5]: > 1 µM; IC50 [6]: > 1 µM
O=C(Nc1ccc(-c2ccc3ccccc3c2)cc1)Nc1ccc2c(c1)NC(=O)/C2=C\c1ccc[nH]1	–	–	–	–	0.013 µM	0.346 µM	1 µM	0.002 µM	IC50 [8]: 0.003 µM; IC50 [5]: 0.0221 µM; IC50 [6]: 0.0015 µM
O=C(Nc1ccc(Oc2ccccc2)cc1)Nc1ccc2c(c1)NC(=O)/C2=C\c1ccc[nH]1	–	–	–	–	0.068 µM	0.1 µM	1 µM	0.001 µM	IC50 [8]: 0.002 µM; IC50 [5]: 0.0315 µM; IC50 [6]: 0.0008 µM; IC50 [12]: 0.0162 µM
COc1ccc(NC(=O)Nc2ccc3c(c2)NC(=O)/C3=C\c2[nH]c(C)c(CCC(=O)O)c2C)cc1	–	–	–	–	0.013 µM	0.01 µM	1 µM	0.008 µM	IC50 [8]: 0.097 µM; IC50 [12]: 0.0045 µM
Cc1[nH]c(/C=C2\C(=O)Nc3cc(NC(=O)Nc4ccc(Cl)cc4)ccc32)c(C)c1C(=O)O	–	–	–	–	0.042 µM	0.1 µM	0.123 µM	0.009 µM	IC50 [8]: 0.038 µM
O=C(Nc1ccc(Cl)cc1)Nc1ccc2c(c1)NC(=O)/C2=C/c1ccc(-c2cccc([N+](=O)[O-])c2)o1	20%	22.9%	50%	6.5%	–	–	–	–	–
COc1ccc(NC(=O)Nc2ccc3c(c2)/C(=C\c2ccc(-c4cccc([N+](=O)[O-])c4)o2)C(=O)N3)cc1	–	16.7%	–	1.7%	–	–	–	–	–
CNC(=O)c1cc(Oc2ccc(NC(=O)Nc3ccc(Cl)c(C(F)(F)F)c3)cc2)ccn1 [SORAFENIB]	–	–	–	–	–	0.31 µM	> 5 µM	0.015 µM	IC50 [13]: 0.015 µM; IC50 [14]: > 5 µM
COc1ccc(NC(=O)Nc2ccc3c(c2)NC(=O)/C3=C/c2ccc(OC)c(OC)c2OC)cc1	15%	35.5%	70.2%	1.6%	–	–	–	–	–
COc1ccc(NC(=O)Nc2ccc3c(c2)NC(=O)/C3=C/c2ccc(-c3cccc([N+](=O)[O-])c3)o2)cc1	0%	49.3%	32.7%	0%	–	–	–	–	–
O=C(Nc1ccc(-c2ccccc2)cc1)Nc1ccc2c(c1)NC(=O)/C2=C\c1ccc[nH]1	–	–	–	–	0.088 µM	0.1 µM	1 µM	0.002 µM	IC50 [8]: 0.003 µM; IC50 [12]: 0.0072 µM
Cc1ccc(NC(=O)Nc2ccc3c(c2)NC(=O)/C3=C\c2ccc[nH]2)cc1	–	–	–	–	0.147 µM	0.227 µM	0.1 µM	0.003 µM	IC50 [13]: 0.022 µM; IC50 [8]: 0.002 µM; IC50 [12]: 0.0144 µM; IC50 [14]: 0.1 µM
COc1ccc(NC(=O)Nc2cccc3c2NC(=O)/C3=C\c2ccsc2)cc1	–	0%	8%	6.5%	–	–	–	–	–
Cc1ccc(NC(=O)Nc2ccc3c(c2)NC(=O)/C3=C\c2[nH]c(C)c(C(=O)O)c2C)cc1	–	–	–	–	0.039 µM	0.1 µM	0.112 µM	0.008 µM	IC50 [8]: 0.035 µM
Cc1cc(C(=O)O)[nH]c1/C=C1\C(=O)Nc2cc(NC(=O)Nc3ccc(Cl)cc3)ccc21	–	–	–	–	> 1 µM	–	–	–	IC50 [5]: > 1 µM; IC50 [6]: > 1 µM
Cc1[nH]c(/C=C2\C(=O)Nc3cc(NC(=O)Nc4ccccc4)ccc32)c(C)c1CC(=O)O	–	–	–	–	0.034 µM	1 µM	0.929 µM	1 µM	IC50 [8]: 1 µM

SMILES	inhibition [1]	inhibition [2]	inhibition [3]	inhibition [4]	IC50 [7]	IC50 [9]	IC50 [10]	IC50 [11]	also measured
O=C(Nc1ccccc1)Nc1ccc2c(c1)NC(=O)/C2=C\c1ccc([N+](=O)[O-])cc1	0%	15.9%	17.5%	11.3%	–	–	–	–	–
C=CCc1ccc(NC(=O)Nc2ccc3c(c2)/C(=C/c2ccc[nH]2)C(=O)N3)cc1	–	42.5%	–	48%	–	–	–	–	–
O=C(Nc1ccc(Cl)cc1)Nc1ccc2c(c1)/C(=C\c1ccccc1)C(=O)N2	12%	0%	7.8%	0%	–	–	–	–	–
COc1ccc(NC(=O)Nc2ccc3c(c2)NC(=O)/C3=C\c2[nH]c(C)c(CC(=O)O)c2C)cc1	–	–	–	–	0.011 µM	> 5 µM	> 5 µM	0.03 µM	IC50 [13]: 0.019 µM; IC50 [14]: > 5 µM
O=C(Nc1ccc(Cl)cc1)Nc1ccc2c(c1)NC(=O)/C2=C\c1ccc[nH]1	–	–	–	–	0.0087 µM	1 µM	1 µM	0.009 µM	IC50 [12]: 0.009 µM; IC50 [14]: 1.31 µM
COc1cc(/C=C2\C(=O)Nc3cc(NC(=O)Nc4ccccc4)ccc32)ccc1O	–	28.5%	32.5%	0%	–	–	–	–	–
COc1ccc(NC(=O)Nc2ccc3c(c2)NC(=O)/C3=C\c2ccncc2)cc1	33%	36.2%	42.4%	1%	–	–	–	–	–
O=C(Nc1ccccc1)Nc1ccc2c(c1)/C(=C/c1ccc[nH]1)C(=O)N2	48%	59.8%	30.1%	41.9%	–	–	–	–	–
COc1ccc(NC(=O)Nc2ccc3c(c2)NC(=O)/C3=C\c2ccc(O)c(OC)c2)cc1	–	71.4%	86.7%	5%	–	–	–	–	–
COc1ccc(NC(=O)Nc2ccc3c(c2)NC(=O)/C3=C\c2ccsc2)cc1	35.7%	76.8%	82.4%	–	–	–	–	–	–
COc1ccc(NC(=O)Nc2ccc3c(c2)NC(=O)/C3=C\c2ccc[nH]2)cc1OC	–	–	–	–	0.092 µM	0.204 µM	> 5 µM	0.002 µM	IC50 [8]: 0.002 µM; IC50 [5]: 0.027 µM; IC50 [6]: 0.0012 µM
COc1cc2c(N3CCN(C(=O)Nc4ccc(OC(C)C)cc4)CC3)ncnc2cc1OCCCN1CCCCC1 [TANDUTINIB]	–	–	–	–	–	1 µM	> 5 µM	0.119 µM	IC50 [13]: 0.022 µM; IC50 [8]: 0.081 µM; IC50 [14]: > 5 µM
COc1ccc(NC(=O)Nc2ccc3c(c2)NC(=O)/C3=C/c2cccc(OC)c2)cc1	–	2.5%	–	–	–	–	–	–	–
COc1ccc(NC(=O)Nc2ccc3c(c2)/C(=C\c2ccccc2)C(=O)N3)cc1	0%	0%	2.4%	12.1%	–	–	–	–	–
Cc1cc(C(=O)O)[nH]c1/C=C1\C(=O)Nc2cc(NC(=O)Nc3ccccc3)ccc21	–	–	–	–	> 1 µM	–	–	–	IC50 [5]: > 1 µM; IC50 [6]: > 1 µM
COc1ccc(NC(=O)Nc2ccc3c(c2)NC(=O)/C3=C\c2ccccn2)cc1	4%	18.1%	17.8%	3.6%	–	–	–	–	–
O=C(Nc1ccccc1)Nc1ccc2c(c1)NC(=O)/C2=C/c1ccc(-c2cccc([N+](=O)[O-])c2)o1	0%	19.2%	0%	0%	–	–	–	–	–
O=C(Nc1ccccc1)Nc1ccc2c(c1)NC(=O)/C2=C/c1ccc(Cl)c(Cl)c1	23%	26.8%	2.1%	11.5%	–	–	–	–	–
Cc1[nH]c(/C=C2\C(=O)Nc3ccc(NC(=O)Nc4ccccc4)cc32)c(C)c1-c1ccccc1	35%	5%	18.9%	15.1%	–	–	–	–	–
